Measured values published in patent US20250288583A1, “Treatment of Mucus Hypersecretion” (priority 2024, published 2025).

Assays:
nasal mucus secretion = assay: Range-finding study of CPS-125, Up-Down method, nasal mucus secretion as endpoint; format: in vivo, human
Excerpt: The recognition that inhibition of mucus hypersecretion might be a valuable and unique pharmacological attribute of TRPM8 agonists prompted the applicant to re-examine such compounds in his inventory. CPS-125 was described by Wei in U.S. Pat. No. 7,417,048 (August 2008), and its structure is in Table 10. This molecule incorporates a sulfamoyl group to increase water solubility and is sulfadiazine coupled to p-menthanecarboxamide. In a range-finding study, CPS-125 was suspended in 1% Ethanol/2% Polysorbate 80/saline and titrated using the Up-Down method of Dixon (Annu. Rev. Pharmacol. Toxicol. 20:441-462.1980) with nasal mucus secretion as the endpoint. The effective concentration for reducing secretions by +80% was 8 mg/ml of CPS-125. […] Such heterocyclic structures include pyrrole, furan, oxane, thiophene, thioxazole, and oxazole derivatives.
CPS-125 was active when administered as drops or in a manually activated spray. The nose is pinched and released after instilling 0.3 to 0.5 mL into the nostrils. After pinch and release, the reflex sniff or snort enhances delivery of the drops to the ostiomeatal complex. Using a power-assisted nebulizer enhances delivery of CPS-125. CPS-125's molecular weight of 416 Daltons is the highest of the tested compounds. Normally, large lipophilic molecules are not expected to penetrate secretions to reach target. Apparently, the sulfamoyl group confers the qualities of penetration, stability, and retention to make it a viable lead candidate for inhibition of mucus hypersecretion.

ocular margins = assay: Cooling duration bioassay on eyelids/ocular margins; format: in vivo, human; settings: for Eyelids/Ocular Surface: Table 6, cooling duration, non-keratinized; for Ocular Surface: Table 7, Gly esters
Excerpt: (§1) FIG. 1. Comparison of cooling duration of various p-menthanecarboxamide analogs on philtrum skin versus ocular margins. The philtrum skin is keratinized, but the ocular margins are not. The test substances numbered 1 to 11 are: D-Ala-OiPr, Gly-OiPr, D-Ala-OEt, D-Ala-OMe, D-Ala-GlynPr, GlynPr, D-Ala-OnBu, GlynBu, GlyOEt, L-Ala-OEt, and N-Me-D-Ala-OEt, respectively. Two outliers (1 and 2) were identified as preferred embodiments because they preferentially cool the ocular margins. The nasal cavity surfaces like the ocular margins are not keratinized.
(§2) Cooling agents have been assayed in various ways depending on intended use. For example, for the skin the test substance can be applied on philtrum skin, using descriptions of coolness on a scale of 0 to 3. For the ocular surface, the active ingredient can be applied to the closed eyelids using a wipe. In the oral cavity, drug applications are on the posterior dorsal surface of the tongue. For the oropharyngeal surface, the cooling agent may be applied as an orally disintegrating tablet. The ability of a cooling agent to antagonize a noxious stimuli may also be tested, using nociception from citric acid or chili pepper sauce. Responses are usually measured using a Visual Analog Scale with a numerical rating. For nasal responses, however, such procedures have not been standardized. Some endpoints to consider are open and comfortable breathing, the presence or absence of sniffles, and the secretion of phlegm.

nasal cavity = assay: Nebulizer screening of TRPM8 agonists for sensations in the nasal cavity; format: in vivo, human; settings: NasoNeb nebulizer, 3 to 5 sec per nostril
Description: Formulations for nebulization with NasoNeb® used a standard recipe of (Table 8): 1% of the active ingredient (1 to 10 mg/mL), 2% Tween 80 (Polysorbate 80), 1 to 5% ethanol, and made up to 100% with water. The mixture is centrifuged in a FlackTek, Inc., Speedmixer for at least 10 min at 3000 rpm. The Speedmixer spins the sample in 3 dimensions. The result is a white homogeneous liquid suspension with some of the solids now dissolved. For dosing, ˜2 to 3 mL is loaded into the canister of the nebulizer. The nebulizer nozzle tip is placed in the nostril and activated by pressing a button for 3 to 5 sec using a clock timer. […] For D-Ala-OiPr a 5-sec activation will deliver 2*0.73 mL*2 mg/ml, or a total dose of 3 mg per nose. The nasal cavity is relatively tolerant to exogenous agents with irritant properties, as many rinses are used for rhinitis and sinusitis. For some p-menthanecarboxamide analogs, a 2% (20 mg/mL) solution is possible and contemplated. An ideal agent reproduces a comfortable cooling or sensations of negative heat flux in the nasal cavity. […] Heat flux refers to the rate of heat transfer per unit area. The sinonasal cavity mucosa differs from philtrum skin and ocular margins in histology, so the choice of the right molecule must be made by experiment. The TRPM8 agonists were chosen for screening using a nebulizer for delivery. The NasoNeb system is powerful and effective for the OMC (FIG. 3). The delivery time per nostril in three to five seconds. […] These parameters were estimated in the initial trials: • Onset and offset of cooling sensations in the nasal cavity. • The intensity and quality of the cooling sensations in the nasal cavity. • Presence of effects such as sneezing or cough after dosing. • Degree of nasal stuffiness on a scale of 0 to 5. • Degree of rhinorrhea and phlegm in nasal secretions. • Questions regarding comfort and sleep at night.

ostiomeatal complex = assay: Case studies: nebulized cooling agent in subjects with rhinitis and rhinosinusitis; format: in vivo, human; settings: NasoNeb delivery in subjects with rhinosinusitis
Excerpt: Eight subjects with rhinitis and rhinosinusitis volunteered to test cooling agents delivered with the NasoNeb® nebulizer (FIG. 3). The results were clear, robust, and evident. No statistical analysis was necessary. In a 3 to 5-day course of nebulization t.i.d., all subjects reported the ability to manage and control stuffed-up breathing in their activities. All reported comfortable sleep. The sounds of sniffling and congestion of the nose (“sniffles”), snorting, or gurgling were still present, but to a lesser degree. The subject felt it was easier to blow out liquids from the nasal cavity onto a tissue, and the volume and frequency of blowing decreased. Viscous yellow mucus was less in volume and density. The number of wipes deposited daily into a waste basket decreased by >50%. The subjects-were cheerful and enthusiastic because nasal discomfort was under control. As one subject remarked: “The stuffed-up nose problem is now history!” Severat of these cases are reported below as “Case Studies.”
The subject was given a NasoNeb® nebulizer (unavailable in China) and five individual bottles containing 15 mL of a 1% GlyOiPr solution (suspended in 2% Tween 80, 5% ethanol, and 92% water). They were shown how to load the NasoNeb canister with about 2 mL of liquid and activate the device for a 3-second dose into each nostril. The recommended dosage was three times a day, starting in the morning and at about 6-hour intervals, and for five days.
The subject agreed to using the NasoNeb nebulizer with a cooling agent. They were given a NasoNeb nebulizer and three bottles, each containing 15 ml of a 1% GlyOiPr solution (suspended in 2% Tween 80, 5% ethanol, and 92% water). They were shown how to load the NasoNeb canister with about 2 mL of liquid and activate the device for a 3-second dose into each nostril. The recommended dosage was three times a day, starting in the morning and at about 6-hour intervals, and for five days. After a 5-day trial, the subject noted a significant improvement in sleep and comfortable breathing. […] Their headaches were gone, and their appetite improved. They were advised to continue using the Nebulizer/coolant for another week and then on an as-needed basis. Their family has noticed that the subject has become less withdrawn, more engaging, and interested in their surroundings.
The subject volunteered for a trial with GlyOiPr. They were given a NasoNeb® machine and a plastic squeeze bottle containing 50 mL of GlyOiPr at 3 mg/mL suspended in 1% ethanol/2% polysorbate 80. They learned how to load the canister and activate the pump. Then, they were instructed to rinse their nose thoroughly first thing in the morning and then use the Nebulizer at 5 sec per nostril to deliver the solution. The procedure was to be repeated at 2 hours and 5 hours later to total three daily activations. The subject was interviewed after dosing for three days. They said breathing was much easier at night after the dosing, and they slept well. Nasal secretions were still present but less in volume. […] They were encouraged to use the Nebulizer as needed but not to exceed three daily doses. Three weeks after the start of the experiment, they reported that they were in complete control of their rhinitis. They would do a single dose at night before sleep and one in the morning when needed. They no longer felt congested, and the headaches were gone. The slimy phlegm in the nostrils was gone, and crusting was absent. Their nose felt clean. Their social life improved.
Their main complaint was episodes at night when they would wake up and not be able to breathe comfortably. Sleep apnea and lung disorders were ruled out, and the diagnosis was rhinosinusitis. This was confirmed by a computerized tomography scan and endoscopic examination by a qualified ENT specialist. They agreed to test the preferred embodiments GlyOnPr, GlyOiPr, D-Ala-OnPr, and D-Ala-OiPr systematically, one after the other.

philtrum skin = assay: Cooling duration bioassay on philtrum skin; format: in vivo, human
Excerpt: as §1, §2

oral cavity = assay: Chili-pepper sauce test (oral cavity); format: in vivo, human; parameters: scale not given here; settings: Table 6; grades 0, +, ++ without key
Excerpt: as §2

hTRPM8 channel = target: T1, hTRPM8 channel (Homo sapiens, UniProt Q7Z2W7); assay: TRPM8 receptor assay, calcium entry (Fluo-8, FLIPR) in transfected CHO cells; format: cell-based; settings: for Potency Relative to L-menthol: ratio of TRPM8 EC50 values, menthol = 1.0
T1 construct: host or cells: CHO cells
Excerpt: FIG. 4. Agonist activities of TRPM8 analogs. […] The relative fluorescence (RF) unit on the ordinate represents calcium entry into transfected cells. […] The structures of these compounds are in Table 4.
The applicant has synthesized and examined a series of p-menthanecarboxamides conjugated to amino acid esters. […] This class of molecules is called N-alkylcarbonyl-amino acid esters. GlyOiPr is a p-menthanecarboxamide conjugate of glycine isopropyl (iPr) ester. It is similar in structure to WS-5, a cooling agent used as a food additive. WS-5 is the p-menthane-glycine ethyl (Et) ester, or GlyOEt. […] These in vitro effects were measured in CHO cells transfected with the hTRPM8 channel. Receptor activity was quantified using a Fluo-8 calcium kit and a Fluorescence Imaging Plate Reader ([…]™).

oropharyngeal surface = assay: Bioassay on oropharyngeal surface; format: in vivo, human; settings: Table 7; grades 0, ++ without key
Excerpt: as §2

TRPV1 = target: T2, TRPV1 (Homo sapiens, UniProt Q8NER1); assay: TRPV1 specificity assay in transfected cells; format: cell-based; settings: FIG. 5; capsaicin positive control
T2 construct: expressed in transfected cells

[1] = Table 6, cooling duration, keratinized skin

T1 sequence (Q7Z2W7 whole entry): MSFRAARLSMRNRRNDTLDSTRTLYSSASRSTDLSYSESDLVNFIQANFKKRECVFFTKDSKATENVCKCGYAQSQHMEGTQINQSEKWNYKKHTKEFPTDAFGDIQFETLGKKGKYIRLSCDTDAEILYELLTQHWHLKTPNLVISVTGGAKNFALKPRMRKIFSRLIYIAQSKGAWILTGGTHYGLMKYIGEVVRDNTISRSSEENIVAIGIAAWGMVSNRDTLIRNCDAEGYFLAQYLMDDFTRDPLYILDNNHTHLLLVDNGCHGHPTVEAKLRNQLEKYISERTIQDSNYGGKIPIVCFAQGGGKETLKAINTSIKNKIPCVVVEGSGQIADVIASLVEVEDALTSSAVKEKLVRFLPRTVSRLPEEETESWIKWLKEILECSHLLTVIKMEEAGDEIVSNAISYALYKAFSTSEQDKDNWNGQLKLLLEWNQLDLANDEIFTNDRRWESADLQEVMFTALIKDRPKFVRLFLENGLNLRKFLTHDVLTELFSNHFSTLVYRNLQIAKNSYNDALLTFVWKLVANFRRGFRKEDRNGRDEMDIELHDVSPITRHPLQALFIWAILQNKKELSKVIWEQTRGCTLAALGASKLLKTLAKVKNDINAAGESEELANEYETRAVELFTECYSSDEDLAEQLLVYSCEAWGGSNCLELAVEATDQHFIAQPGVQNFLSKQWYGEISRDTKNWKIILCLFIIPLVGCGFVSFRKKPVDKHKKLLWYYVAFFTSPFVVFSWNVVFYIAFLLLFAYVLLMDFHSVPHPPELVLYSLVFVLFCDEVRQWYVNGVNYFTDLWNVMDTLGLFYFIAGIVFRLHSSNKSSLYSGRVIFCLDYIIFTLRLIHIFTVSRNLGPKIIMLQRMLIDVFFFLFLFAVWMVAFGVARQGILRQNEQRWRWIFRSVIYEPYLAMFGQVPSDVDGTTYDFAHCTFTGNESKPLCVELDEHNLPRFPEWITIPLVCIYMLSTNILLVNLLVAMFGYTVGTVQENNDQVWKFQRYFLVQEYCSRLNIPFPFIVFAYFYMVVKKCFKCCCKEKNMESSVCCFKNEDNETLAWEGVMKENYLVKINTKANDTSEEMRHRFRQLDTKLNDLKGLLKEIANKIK
T2 sequence (Q8NER1 whole entry, species assumed): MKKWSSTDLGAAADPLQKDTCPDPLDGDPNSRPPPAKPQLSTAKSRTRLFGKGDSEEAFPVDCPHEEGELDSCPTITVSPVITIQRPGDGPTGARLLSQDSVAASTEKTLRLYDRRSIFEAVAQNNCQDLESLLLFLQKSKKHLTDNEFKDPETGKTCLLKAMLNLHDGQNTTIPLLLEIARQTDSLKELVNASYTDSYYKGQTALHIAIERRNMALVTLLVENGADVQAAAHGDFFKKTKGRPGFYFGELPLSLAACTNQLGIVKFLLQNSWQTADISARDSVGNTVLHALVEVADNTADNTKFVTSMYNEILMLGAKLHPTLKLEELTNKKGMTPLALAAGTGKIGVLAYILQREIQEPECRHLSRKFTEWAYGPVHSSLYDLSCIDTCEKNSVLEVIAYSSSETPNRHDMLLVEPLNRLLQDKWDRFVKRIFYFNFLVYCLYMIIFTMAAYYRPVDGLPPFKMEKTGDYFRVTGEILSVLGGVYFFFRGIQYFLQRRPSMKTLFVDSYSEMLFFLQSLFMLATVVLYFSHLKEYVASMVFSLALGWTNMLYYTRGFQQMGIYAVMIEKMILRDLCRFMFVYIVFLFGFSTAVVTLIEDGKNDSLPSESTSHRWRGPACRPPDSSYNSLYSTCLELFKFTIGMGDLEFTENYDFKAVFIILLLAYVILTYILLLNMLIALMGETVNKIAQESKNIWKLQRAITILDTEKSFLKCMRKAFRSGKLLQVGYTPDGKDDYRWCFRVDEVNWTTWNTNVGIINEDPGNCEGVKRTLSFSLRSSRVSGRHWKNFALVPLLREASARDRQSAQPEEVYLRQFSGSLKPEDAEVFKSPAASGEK

CC(C)[C@@H]1CC[C@@H](C)C[C@H]1C(=O)Nc1ccc(S(=O)(=O)Nc2ncccn2)cc1 [CPS-125, (1R,2S,5R)-2-Isopropyl-5-methyl-cyclohexanecarboxylic acid [4-(pyrimidin-2-ylsulfamoyl)-phenyl]-amide]
Activity when administered as drops or in a manually activated spray (nasal mucus secretion; 0.3 to 0.5 mL into the nostrils, pinch and release): active | Duration of action among the 25+ compounds tested (nasal mucus secretion; in vivo): longest duration of action | Effective concentration for reducing secretions by +80% (nasal mucus secretion; suspended in 1% Ethanol/2% Polysorbate 80/saline, Up-Down method of Dixon): 8 mg/mL

CCCOC(=O)[C@@H](C)NC(=O)[C@@H]1C[C@H](C)CC[C@H]1C(C)C [D-Ala-OnPr, (R)-2-[((1R,2S,5R)-2-isopropyl-5-methyl-cyclohexanecarbonyl)-amino]-propionic acid n-propyl ester]
Eyelids/Ocular Surface (ocular margins): 65 min | Sensory effects after delivery into the nasal cavity (nasal cavity): Strong penetrating cool at 3 mg/mL. Excellent for viral ARS. | Relief of stuffiness and breathing (ostiomeatal complex): provided relief | Philtrum Skin (philtrum skin; [1]): 108 min

CCOC(=O)CNC(=O)[C@@H]1C[C@H](C)CC[C@H]1C(C)C [GlyOEt, [((1R,2S,5R)-2-isopropyl-5-methyl-cyclohexanecarbonyl)-amino]-acetic acid ethyl ester, reference compound]
Chili-Pepper Sauce Test (oral cavity): 0 | Potency Relative to L-menthol (hTRPM8 channel): 10.6 | Oropharyngeal Surface (oropharyngeal surface): 0 | Eyelids/Ocular Surface (ocular margins): 15 min | Ocular Surface (ocular margins): 15 min | Increase of cooling on raising the concentration (ocular margins; from 1 mg/ml to 2 mg/ml): 15 min | Increase of cooling on raising the concentration (ocular margins; from 1 mg/ml to 5 mg/ml): 22 min | Philtrum Skin (philtrum skin; [1]): 24 min | Philtrum Skin (philtrum skin; Table 7, Gly esters): 24 min

CCCCOC(=O)CNC(=O)[C@@H]1C[C@H](C)CC[C@H]1C(C)C [GlyOnBu, [((1R,2S,5R)-2-isopropyl-5-methyl-cyclohexanecarbonyl)-amino]-acetic acid n-butyl ester]
Chili-Pepper Sauce Test (oral cavity): 0 | EC50 (hTRPM8 channel; CHO cells transfected with hTRPM8, Fluo-8 calcium kit, FLIPR): 1360 nM | Potency Relative to L-menthol (hTRPM8 channel): 2.8 | Oropharyngeal Surface (oropharyngeal surface): 0 | Eyelids/Ocular Surface (ocular margins): 35 min | Ocular Surface (ocular margins): 35 min | Philtrum Skin (philtrum skin; [1]): 38 min | Philtrum Skin (philtrum skin; Table 7, Gly esters): 38 min

CCCOC(=O)CNC(=O)[C@@H]1C[C@H](C)CC[C@H]1C(C)C [GlyOnPr, [((1R,2S,5R)-2-isopropyl-5-methyl-cyclohexanecarbonyl)-amino]-acetic acid n-propyl ester]
Chili-Pepper Sauce Test (oral cavity): 0 | Oropharyngeal Surface (oropharyngeal surface): 0 | Eyelids/Ocular Surface (ocular margins): 54 min | Ocular Surface (ocular margins): 54 min | Sensory effects after delivery into the nasal cavity (nasal cavity): About the same duration of action as GlyOiPr, but less refreshing. | Relief of stuffiness and breathing (ostiomeatal complex): provided relief | Philtrum Skin (philtrum skin; [1]): 42 min | Philtrum Skin (philtrum skin; Table 7, Gly esters): 42 min

COc1cc(CNC(=O)CCCC/C=C/C(C)C)ccc1O [capsaicin, reference compound]
Response of cells transfected with TRPV1 (TRPV1): respond
